Among the data in patent publication US10370371B2, “Substituted pyrimidine Bmi-1 inhibitors” (PTC Therapeutics, Inc., priority 2013, dated 2019) are melting point and EC50 values, retold here.

Each structure is given as a SMILES string.

The subject of one series is Bmi-1 protein. The series can be described thus: Sandwich ELISA Assay (Bmi-1 protein level in HT-1080 cells). The series is classed as cell-based. An outline of the steps:
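HT-1080 cells were treated with compounds (0.5% DMSO final) for 40-48 h at 37 °C. Lysates were assayed by sandwich ELISA: mouse anti-Bmi-1 capture, rabbit anti-Bmi-1 and HRP anti-rabbit detection, TMB read at OD450 (OD570 reference). Levels were quantified against a recombinant GST-Bmi-1 standard curve (125-8000 pg/mL).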
A general note: ELISA stands for enzyme-linked immunosorbent assay.

What is called melting point is the temperature of the solid-liquid transition. Usually EC50 stands for the concentration needed to bring the measured effect to its halfway point. A lower EC50 goes with greater potency. Consider `Cc1nc2ccc(F)cc2n1-c1cc(N)nc(Nc2ccc(OC(F)F)cc2)n1` [Cpd 5, N^2-[4-(difluoromethoxy)phenyl]-6-(6-fluoro-2-methyl-1H-benzimidazol-1-yl)pyrimidine-2,4-diamine], for which the melting point was 141 to 143 °C. This compound also gave an EC50 with Bmi-1 protein of 10 to 100 nM.

Compound `Cc1nc2ccc(F)cn2c1-c1cc(N)nc(Nc2ccc(OC(F)F)cc2)n1` [Cpd 2, N^2-[4-(difluoromethoxy)phenyl]-6-(6-fluoro-2-methylimidazo[1,2-a]pyridin-3-yl)pyrimidine-2,4-diamine] yielded a melting point of 189 to 190 °C. This compound returned an EC50 in the series with Bmi-1 protein of 1 to 10 nM.

Take `COc1ccc(Nc2nc(N)cc(-n3c(C)nc4ccccc43)n2)cc1` [Cpd 129, N^2-(4-methoxyphenyl)-6-(2-methyl-1H-benzimidazol-1-yl)pyrimidine-2,4-diamine]: the melting point fell in the range of 149 to 150 °C. Further, the 50% effective concentration (EC50) in the series with Bmi-1 protein was at most 1 nM.

Compound `CCc1nc2ccccc2n1-c1cc(N)nc(Nc2ccccc2C)n1` [Cpd 152, 6-(2-ethyl-1H-benzimidazol-1-yl)-N^2-(2-methylphenyl)pyrimidine-2,4-diamine] showed a melting point of 119 to 120 °C. Also, the EC50 with Bmi-1 protein was 100 to 3000 nM.

In turn, `CCc1nc2ccccc2n1-c1cc(N)nc(Nc2ccc3c(c2)OCO3)n1` [Cpd 154, N^2-(1,3-benzodioxol-5-yl)-6-(2-ethyl-1H-benzimidazol-1-yl)pyrimidine-2,4-diamine] displayed a melting point of 119 to 121 °C. The same compound returned an EC50 with Bmi-1 protein of 10 to 100 nM.

`CC(C)c1nc2cc(F)ccc2n1-c1cc(N)nc(Nc2ccc(OC(F)F)cc2)n1` [Cpd 81, N^2-[4-(difluoromethoxy)phenyl]-6-[5-fluoro-2-(propan-2-yl)-1H-benzimidazol-1-yl]pyrimidine-2,4-diamine] returned a melting point of 118 to 120 °C. For the same compound, in the series with Bmi-1 protein, the EC50 was 100 to 3000 nM.

Turning to `Nc1cc(-n2c(C3CC3)nc3cc(F)ccc32)nc(Nc2ccc(C(F)(F)F)cc2)n1` [Cpd 103, 6-(2-cyclopropyl-5-fluoro-1H-benzimidazol-1-yl)-N^2-[4-(trifluoromethyl)phenyl]pyrimidine-2,4-diamine], the melting point was in the range of 237 to 238 °C. The compound further displayed an EC50 in the series with Bmi-1 protein of 10 to 100 nM.

In turn, `Cc1nc2ccc(F)cc2n1-c1cc(N)nc(Nc2ccccc2)n1` [Cpd 143, 6-(6-fluoro-2-methyl-1H-benzimidazol-1-yl)-N^2-phenylpyrimidine-2,4-diamine] displayed a melting point of 158 to 161 °C. The EC50 in the series on Bmi-1 protein fell in the range of 100 to 3000 nM.

In turn, `CCc1nc2ccc(F)cc2n1-c1cc(N)nc(Nc2ccc(Cl)cc2)n1` [Cpd 158, N^2-(4-chlorophenyl)-6-(2-ethyl-6-fluoro-1H-benzimidazol-1-yl)pyrimidine-2,4-diamine] gave a melting point of 185 to 187 °C. Also, the EC50 with Bmi-1 protein was 1 to 10 nM.

Compound `Cc1nc2ccc(F)cn2c1-c1cc(N)nc(Nc2ccc(Cl)cc2)n1` [Cpd 172, N^2-(4-chlorophenyl)-6-(6-fluoro-2-methylimidazo[1,2-a]pyridin-3-yl)pyrimidine-2,4-diamine] had a melting point of 243 to 246 °C. Besides, the EC50 in the series on Bmi-1 protein lay in the range of 1 to 10 nM.

On to `Cc1nc2ccc(F)cc2n1-c1cc(N)nc(Nc2cccc(Cl)c2)n1` [Cpd 141, N^2-(3-chlorophenyl)-6-(6-fluoro-2-methyl-1H-benzimidazol-1-yl)pyrimidine-2,4-diamine], for which the melting point lay in the range of 211 to 213 °C. Also, in the series on Bmi-1 protein, the EC50 was in the range of 100 to 3000 nM.

Compound `Nc1cc(-c2c(C(F)F)nc3ccc(F)cn23)nc(Nc2ccc(C(F)(F)F)cc2)n1` [Cpd 63, 6-[2-(difluoromethyl)-6-fluoroimidazo[1,2-a]pyridin-3-yl]-N^2-[4-(trifluoromethyl)phenyl]pyrimidine-2,4-diamine] registered a melting point of 242 to 245 °C. In the series with Bmi-1 protein, this compound gave an EC50 of 100 to 3000 nM.

The compound `Cc1nc2cc(F)ccc2n1-c1cc(N)nc(Nc2ccc(OC(F)F)c(F)c2)n1` [Cpd 105, N^2-[4-(difluoromethoxy)-3-fluorophenyl]-6-(5-fluoro-2-methyl-1H-benzimidazol-1-yl)pyrimidine-2,4-diamine] yielded a melting point of 172 to 173 °C. This compound also came in with an EC50 in the series on Bmi-1 protein of 10 to 100 nM.

Consider `CCc1nc2ccc(F)cc2n1-c1cc(N)nc(Nc2ccc(OC)c(F)c2)n1` [Cpd 168, 6-(2-ethyl-6-fluoro-1H-benzimidazol-1-yl)-N^2-(3-fluoro-4-methoxyphenyl)pyrimidine-2,4-diamine], for which the melting point is 129 to 131 °C. The same compound displayed an EC50 in the series on Bmi-1 protein of 1 to 10 nM.

On to `CCc1nc2ccc(F)cc2n1-c1cc(N)nc(Nc2ccc(OC(F)F)c(F)c2)n1` [Cpd 11, N^2-[4-(difluoromethoxy)-3-fluorophenyl]-6-(2-ethyl-6-fluoro-1H-benzimidazol-1-yl)pyrimidine-2,4-diamine], for which the melting point was in the range of 159 to 161 °C. The concentration for a half-maximal effect (EC50) in the series with Bmi-1 protein was in the range of 10 to 100 nM.

`COCc1nc2ccccc2n1-c1cc(N)nc(Nc2ccc(C(F)(F)F)cc2)n1` [Cpd 73, 6-[2-(methoxymethyl)-1H-benzimidazol-1-yl]-N^2-[4-(trifluoromethyl)phenyl]pyrimidine-2,4-diamine] yielded a melting point of 209 to 211 °C. This compound also gave a concentration giving a half-maximal response (EC50) in the series with Bmi-1 protein of 100 to 3000 nM.

`COCc1nc2ccc(F)cc2n1-c1cc(N)nc(Nc2ccc(OC(F)F)cc2)n1` [Cpd 78, N^2-[4-(difluoromethoxy)phenyl]-6-[6-fluoro-2-(methoxymethyl)-1H-benzimidazol-1-yl]pyrimidine-2,4-diamine] registered a melting point of 120 to 122 °C. In the series with Bmi-1 protein, this compound yielded a half-maximal effective concentration (EC50) of 10 to 100 nM.

`CC(C)c1nc2ccc(F)cc2n1-c1cc(N)nc(Nc2ccc(OC(F)F)cc2)n1` [Cpd 79, N^2-[4-(difluoromethoxy)phenyl]-6-[6-fluoro-2-(propan-2-yl)-1H-benzimidazol-1-yl]pyrimidine-2,4-diamine] yielded a melting point of 167 to 169 °C. The EC50 in the series on Bmi-1 protein was in the range of 10 to 100 nM.

As to `Cc1nc2ccc(F)cc2n1-c1cc(N)nc(Nc2ccc(C#N)cc2)n1` [Cpd 137, 4-{[4-amino-6-(6-fluoro-2-methyl-1H-benzimidazol-1-yl)pyrimidin-2-yl]amino}benzonitrile], the melting point was 183 to 185 °C. In the series with Bmi-1 protein, this compound displayed a 50% effective concentration (EC50) of 100 to 3000 nM.

Compound `COc1ccc(Nc2nc(N)cc(-n3c(C)nc4ccc(F)cc43)n2)cc1F` [Cpd 142, N^2-(3-fluoro-4-methoxyphenyl)-6-(6-fluoro-2-methyl-1H-benzimidazol-1-yl)pyrimidine-2,4-diamine] came in with a melting point of 166 to 167 °C. The same compound came in with an EC50 in the series on Bmi-1 protein of 1 to 10 nM.

The compound `CC(C)c1nc2ccccc2n1-c1cc(N)nc(Nc2ccc(OC(F)F)cc2)n1` [Cpd 89, N^2-[4-(difluoromethoxy)phenyl]-6-[2-(propan-2-yl)-1H-benzimidazol-1-yl]pyrimidine-2,4-diamine] registered a melting point of 184 to 187 °C. Further, in the series on Bmi-1 protein, the EC50 fell in the range of 10 to 100 nM.

The compound `CCc1nc2ccc(F)cc2n1-c1cc(N)nc(Nc2ccc(C#N)cc2)n1` [Cpd 167, 4-{[4-amino-6-(2-ethyl-6-fluoro-1H-benzimidazol-1-yl)pyrimidin-2-yl]amino}benzonitrile] had a melting point of 252 to 255 °C. The compound also returned an EC50 with Bmi-1 protein of 100 to 3000 nM.

`Cc1cc2nc(C)n(-c3cc(N)nc(Nc4ccc(OC(F)F)cc4)n3)c2cc1C` [Cpd 188, N^2-[4-(difluoromethoxy)phenyl]-6-(2,5,6-trimethyl-1H-benzimidazol-1-yl)pyrimidine-2,4-diamine] came in with a melting point of 89 to 91 °C. In the series on Bmi-1 protein, this compound gave a 50% effective concentration (EC50) of 10 to 100 nM.

`Cc1cccc(Nc2nc(N)cc(-n3c(C)nc4ccc(F)cc43)n2)c1` [Cpd 139, 6-(6-fluoro-2-methyl-1H-benzimidazol-1-yl)-N^2-(3-methylphenyl)pyrimidine-2,4-diamine] returned a melting point of 156 to 158 °C. The compound further registered a concentration for a half-maximal effect (EC50) in the series with Bmi-1 protein of 100 to 3000 nM.

Take `Cc1ccc(Nc2nc(N)cc(-n3c(C)nc4ccc(F)cc43)n2)cc1` [Cpd 134, 6-(6-fluoro-2-methyl-1H-benzimidazol-1-yl)-N^2-(4-methylphenyl)pyrimidine-2,4-diamine]: the melting point lay in the range of 118 to 120 °C. In the series with Bmi-1 protein, the EC50 was in the range of 1 to 10 nM.
